The source made the active and inactive calls.
Experiments:
[1] = StAR promoter reporter inhibition counter-screen, dose response, counter-screen for LRH-1 inverse agonist project, cell-based, luminescence, luciferase reporter (AID 651969); assay type: functional
[2] = target: Nuclear receptor subfamily 5 group A member 2 (Homo sapiens, UniProt O00482); assay type: functional, cell-based;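 note: HEK293T cells transfected with LRH-1 and a StAR promoter luciferase reporter; potency for inhibitors that lower LRH-1 driven reporter light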
Steroidogenic factor 1 = Steroidogenic factor 1 (Homo sapiens, UniProt Q13285); test: Counterscreen for inverse agonists of the liver receptor homolog-1 (LRH-1; NR5A2): Luminescence-based cell-based high throughput dose response assay to identify inverse agonists of the Steroidogenic Factor 1 Nuclear Receptor (SF1; NR5A1).; assay type: functional
[3] = target: T1, Rac GTPase-activating protein 1 (Homo sapiens, UniProt Q9H0H5); test: MgcRacGAP GTPase-activating activity inhibitors, confirmation, biochemical, ADP Hunter fluorescence, primary and confirmatory (AID 624330); assay type: functional
T1 sequence (Q9H0H5 whole entry): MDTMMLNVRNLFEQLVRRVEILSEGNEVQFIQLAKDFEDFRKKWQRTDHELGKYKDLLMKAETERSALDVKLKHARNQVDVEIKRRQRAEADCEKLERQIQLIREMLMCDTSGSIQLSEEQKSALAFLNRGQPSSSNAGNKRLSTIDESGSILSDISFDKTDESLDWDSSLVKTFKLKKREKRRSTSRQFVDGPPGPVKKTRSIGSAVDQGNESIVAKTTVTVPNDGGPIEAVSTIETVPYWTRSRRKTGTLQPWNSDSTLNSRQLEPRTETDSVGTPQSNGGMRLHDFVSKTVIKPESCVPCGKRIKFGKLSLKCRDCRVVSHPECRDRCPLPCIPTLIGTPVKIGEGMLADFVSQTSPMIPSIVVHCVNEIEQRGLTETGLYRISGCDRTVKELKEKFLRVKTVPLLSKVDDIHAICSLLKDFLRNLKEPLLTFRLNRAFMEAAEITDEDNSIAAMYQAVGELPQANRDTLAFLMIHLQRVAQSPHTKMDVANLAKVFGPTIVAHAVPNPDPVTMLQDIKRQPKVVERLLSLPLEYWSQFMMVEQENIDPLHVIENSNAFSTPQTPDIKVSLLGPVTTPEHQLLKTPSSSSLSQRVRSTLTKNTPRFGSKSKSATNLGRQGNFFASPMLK

[4] = target: T2, Corticotropin-releasing factor receptor 2/Corticotropin-releasing factor-binding protein (Homo sapiens, UniProt P24387+Q13324); test: activators of CRF receptor 2 with binding protein – uHTS hits, confirmation (AID 602473); assay type: functional; details: read-out: EC50_Mean
T2 sequence (Q13324 whole entry): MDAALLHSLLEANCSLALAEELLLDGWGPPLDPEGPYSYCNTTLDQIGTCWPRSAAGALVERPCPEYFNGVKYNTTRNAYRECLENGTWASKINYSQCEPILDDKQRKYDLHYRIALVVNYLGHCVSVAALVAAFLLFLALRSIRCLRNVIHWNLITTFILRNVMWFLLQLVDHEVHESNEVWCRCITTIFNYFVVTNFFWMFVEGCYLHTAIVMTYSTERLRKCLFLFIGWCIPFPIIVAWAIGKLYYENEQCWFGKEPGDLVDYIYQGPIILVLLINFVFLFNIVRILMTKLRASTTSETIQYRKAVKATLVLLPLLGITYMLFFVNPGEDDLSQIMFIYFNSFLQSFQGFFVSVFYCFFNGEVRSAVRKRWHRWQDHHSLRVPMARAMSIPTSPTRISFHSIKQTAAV
T2 sequence (P24387 whole entry): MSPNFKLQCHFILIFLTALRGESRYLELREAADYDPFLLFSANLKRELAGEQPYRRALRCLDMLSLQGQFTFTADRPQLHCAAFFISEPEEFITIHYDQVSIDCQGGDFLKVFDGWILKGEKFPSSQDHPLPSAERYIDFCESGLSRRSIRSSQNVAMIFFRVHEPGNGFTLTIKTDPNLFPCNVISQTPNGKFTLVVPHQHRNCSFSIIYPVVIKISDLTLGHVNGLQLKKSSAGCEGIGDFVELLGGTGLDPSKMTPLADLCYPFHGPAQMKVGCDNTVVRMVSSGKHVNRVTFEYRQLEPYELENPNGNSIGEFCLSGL

[5] = target: 26S proteasome non-ATPase regulatory subunit 14 (Homo sapiens, UniProt O00487); test: inhibition of proteasome subunit RPN11 – biochemical, fluorescence polarization, uHTS hits, confirmation (AID 602368); assay type: functional
Genome polyprotein = Genome polyprotein (dengue virus type 2, UniProt P29990); test: Dengue-2 NS5 methyltransferase inhibitors, primary screen, biochemical, confirmation dose response (AID 588689); assay type: functional
[6] = target: T2, Corticotropin-releasing factor receptor 2/Corticotropin-releasing factor-binding protein; test: Dose Response confirmation of uHTS hits for small molecule antagonists of the CRF-binding protein and CRF-R2 receptor complex.; assay type: functional; details: read-out: IC50_Mean
Aminopeptidase N = target: T3, Aminopeptidase N (Plasmodium falciparum FcB1/Columbia, UniProt O96935); test: P. falciparum M1AAP inhibitors, biochemical, fluorogenic H-Leu-NHMec substrate, 1536-well (AID 1445); design: species or system Plasmodium falciparum 3D7, 3D7
T3 sequence (O96935 whole entry): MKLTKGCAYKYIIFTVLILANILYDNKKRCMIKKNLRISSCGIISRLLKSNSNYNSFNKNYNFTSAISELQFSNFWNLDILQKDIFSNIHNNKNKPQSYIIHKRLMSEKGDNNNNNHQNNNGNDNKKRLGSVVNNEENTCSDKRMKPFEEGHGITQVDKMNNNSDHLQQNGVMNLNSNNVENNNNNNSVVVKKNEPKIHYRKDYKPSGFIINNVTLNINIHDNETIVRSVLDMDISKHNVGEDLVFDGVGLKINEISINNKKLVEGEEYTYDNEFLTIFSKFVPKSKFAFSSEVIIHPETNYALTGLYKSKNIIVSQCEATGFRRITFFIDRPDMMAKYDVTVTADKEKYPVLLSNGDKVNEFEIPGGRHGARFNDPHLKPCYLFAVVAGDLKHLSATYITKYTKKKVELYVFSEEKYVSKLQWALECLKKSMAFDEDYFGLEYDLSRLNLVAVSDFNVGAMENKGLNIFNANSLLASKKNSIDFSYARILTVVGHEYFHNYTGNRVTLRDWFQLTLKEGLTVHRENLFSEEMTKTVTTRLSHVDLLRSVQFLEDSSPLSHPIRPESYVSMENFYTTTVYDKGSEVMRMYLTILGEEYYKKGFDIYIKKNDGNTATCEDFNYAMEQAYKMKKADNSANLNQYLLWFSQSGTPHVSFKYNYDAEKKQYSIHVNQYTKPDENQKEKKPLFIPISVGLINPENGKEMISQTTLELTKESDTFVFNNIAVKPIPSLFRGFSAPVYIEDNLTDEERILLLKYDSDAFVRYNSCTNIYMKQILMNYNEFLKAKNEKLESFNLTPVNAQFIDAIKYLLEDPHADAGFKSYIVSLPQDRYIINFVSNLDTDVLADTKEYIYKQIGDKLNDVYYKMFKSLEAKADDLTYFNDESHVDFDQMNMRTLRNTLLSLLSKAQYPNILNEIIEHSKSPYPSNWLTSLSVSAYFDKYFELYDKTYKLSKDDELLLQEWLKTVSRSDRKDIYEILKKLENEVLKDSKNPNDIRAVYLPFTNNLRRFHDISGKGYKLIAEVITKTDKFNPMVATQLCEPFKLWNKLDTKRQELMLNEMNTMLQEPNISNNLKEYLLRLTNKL

Prothrombin = Prothrombin (Bos taurus, UniProt P00735); test: thrombin inhibition, dose response, biochemical, fluorescence polarization, uHTS hits (AID 602369); assay type: functional
[7] = target: 72 kDa type IV collagenase (Homo sapiens, UniProt P08253); test: Dose Response validation of uHTS RPN11 inhibitor hits using a MMP-2 Fluorescence assay.; assay type: functional
[8] = target: T4, Carboxy-terminal domain RNA polymerase II polypeptide A small phosphatase 1 (Homo sapiens, UniProt Q9GZU7); test: inhibitors of CTDSP1, concentration-response testing, biochemical assay, absorbance-based, actives from ultra-high-throughput screening (AID 540297); assay type: functional
T4 sequence (Q9GZU7 whole entry): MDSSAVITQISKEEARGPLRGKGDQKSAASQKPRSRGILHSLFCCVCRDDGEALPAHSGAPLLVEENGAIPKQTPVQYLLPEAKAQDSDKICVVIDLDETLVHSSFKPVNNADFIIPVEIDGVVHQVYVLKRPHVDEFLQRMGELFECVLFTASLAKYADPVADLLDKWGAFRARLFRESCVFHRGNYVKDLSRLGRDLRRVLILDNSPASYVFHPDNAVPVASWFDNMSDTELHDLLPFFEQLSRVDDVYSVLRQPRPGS

Large T antigen = Large T antigen (Simian virus 40, UniProt P03070); assay type: functional, Betapolyomavirus macacae;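 note: Confirmatory-stage PubChem screen for compounds that inhibit SV40 T antigen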
[9] = CRF-BP/CRF-R2 complex antagonists, dose response, cell-based, uHTS hits, 384-well (AID 651639); assay type: functional, Homo sapiens; details: read-out: IC50_Mean
[10] = Fluorescence-based cell-based high throughput dose response assay for inhibitors of the interaction of nucleotide-binding oligomerization domain containing 2 (NOD2) and the receptor-interacting serine-threonine kinase 2 (RIPK2).; assay type: functional; details: Homo sapiens
[11] = target: T5, Sentrin-specific protease 8 (Homo sapiens, UniProt Q96LD8); assay type: functional
T5 sequence (Q96LD8 whole entry): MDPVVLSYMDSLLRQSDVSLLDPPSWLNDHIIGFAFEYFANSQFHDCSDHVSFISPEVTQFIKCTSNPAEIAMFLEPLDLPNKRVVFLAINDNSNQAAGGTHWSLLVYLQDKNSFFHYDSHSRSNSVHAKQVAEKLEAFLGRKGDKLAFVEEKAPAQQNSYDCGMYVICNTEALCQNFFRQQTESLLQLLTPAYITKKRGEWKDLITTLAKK

[12] = target: T5, Sentrin-specific protease 8; assay type: functional; remark: listed apart in the source
HEK293 = test: inhibitors of LMP1-driven NF-kB reporter, dose response, cell-based, HEK293, luciferase, cherry-pick (AID 588343); assay type: functional; details: Homo sapiens
[13] = ARNT/TACC3 interaction disruptors, potency, confirmation, biochemical, AlphaScreen, cherry-picked samples (AID 651703); assay type: functional, Homo sapiens;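 note: His-tagged ARNT PAS-B domain paired with GST-TACC3 E629A dimer coactivator fragment; potency of inhibitors that break up the complex and lower AlphaScreen signal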
[14] = target: Luciferin 4-monooxygenase (Photinus pyralis, UniProt P08659); test: firefly luciferase enzyme inhibitors, dose response, biochemical, luminescence (AID 1891)
[15] = HepG2 cell cytotoxicity, dose response, cytotoxicity control, plate reader, cherry-pick, antagonist series (AID 743416); assay type: functional, cell-based
[16] = MC4R antagonists, dose response, counter-screen for LGR2 antagonist project, cell-based, plate reader, cherry pick (AID 743444); assay type: functional;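 note: transfected HEK 293 cells stimulated with alpha-MSH peptide; potency of inhibitors of the alpha-MSH evoked signal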
[17] = LGR2 antagonists, dose response, cell-based, HEK293, CRE-luciferase reporter, cherry pick, set 2 (AID 743343); assay type: functional;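 note: transfected cells were stimulated with diluted bursicon conditioned medium after compound addition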
[18] = HEK293 cell cytotoxicity, dose response, cytotoxicity control, plate reader, cherry-picked samples (AID 743446); assay type: functional, cell-based
[19] = Luminescence Cell-Based Dose Confirmation HTS to Identify Inhibitors of Platelet Dense Granule Release. [Related pubchem assays: 1663 (Primary HTS), 1678 (Summary of Project)]; assay type: functional
[20] = A549 cell cytotoxicity, dose response, cytotoxicity control, plate reader, cherry-pick, antagonist series (AID 743412); assay type: functional, cell-based

Nuclear receptor subfamily 5 group A member 2, sequence (O00482 whole entry): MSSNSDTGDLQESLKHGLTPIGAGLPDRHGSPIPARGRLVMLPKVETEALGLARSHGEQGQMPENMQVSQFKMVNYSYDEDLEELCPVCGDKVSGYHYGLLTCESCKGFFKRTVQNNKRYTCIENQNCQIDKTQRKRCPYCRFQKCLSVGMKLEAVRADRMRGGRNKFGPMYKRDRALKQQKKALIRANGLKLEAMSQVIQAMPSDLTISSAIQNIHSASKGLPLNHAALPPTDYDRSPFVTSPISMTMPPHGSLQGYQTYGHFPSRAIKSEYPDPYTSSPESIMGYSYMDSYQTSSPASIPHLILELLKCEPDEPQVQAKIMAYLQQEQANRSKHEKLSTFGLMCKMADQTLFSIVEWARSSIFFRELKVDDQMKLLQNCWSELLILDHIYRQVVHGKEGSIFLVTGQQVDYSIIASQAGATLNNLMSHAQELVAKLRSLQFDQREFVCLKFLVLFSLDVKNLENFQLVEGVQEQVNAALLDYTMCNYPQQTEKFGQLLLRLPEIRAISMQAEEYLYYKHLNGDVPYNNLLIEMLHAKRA
Steroidogenic factor 1, sequence (Q13285 whole entry): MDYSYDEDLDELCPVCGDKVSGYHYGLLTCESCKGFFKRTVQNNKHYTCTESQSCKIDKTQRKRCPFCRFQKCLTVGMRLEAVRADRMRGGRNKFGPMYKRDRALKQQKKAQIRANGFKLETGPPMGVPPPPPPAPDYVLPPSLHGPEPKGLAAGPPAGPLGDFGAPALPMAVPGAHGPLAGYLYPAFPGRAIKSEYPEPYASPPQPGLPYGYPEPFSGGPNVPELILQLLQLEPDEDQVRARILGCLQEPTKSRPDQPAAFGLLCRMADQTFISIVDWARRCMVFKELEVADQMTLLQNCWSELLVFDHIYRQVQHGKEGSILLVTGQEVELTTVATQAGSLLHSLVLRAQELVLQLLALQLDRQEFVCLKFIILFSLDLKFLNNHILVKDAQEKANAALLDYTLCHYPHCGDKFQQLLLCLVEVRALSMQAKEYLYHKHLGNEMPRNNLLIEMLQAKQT
Luciferin 4-monooxygenase, sequence (P08659 whole entry): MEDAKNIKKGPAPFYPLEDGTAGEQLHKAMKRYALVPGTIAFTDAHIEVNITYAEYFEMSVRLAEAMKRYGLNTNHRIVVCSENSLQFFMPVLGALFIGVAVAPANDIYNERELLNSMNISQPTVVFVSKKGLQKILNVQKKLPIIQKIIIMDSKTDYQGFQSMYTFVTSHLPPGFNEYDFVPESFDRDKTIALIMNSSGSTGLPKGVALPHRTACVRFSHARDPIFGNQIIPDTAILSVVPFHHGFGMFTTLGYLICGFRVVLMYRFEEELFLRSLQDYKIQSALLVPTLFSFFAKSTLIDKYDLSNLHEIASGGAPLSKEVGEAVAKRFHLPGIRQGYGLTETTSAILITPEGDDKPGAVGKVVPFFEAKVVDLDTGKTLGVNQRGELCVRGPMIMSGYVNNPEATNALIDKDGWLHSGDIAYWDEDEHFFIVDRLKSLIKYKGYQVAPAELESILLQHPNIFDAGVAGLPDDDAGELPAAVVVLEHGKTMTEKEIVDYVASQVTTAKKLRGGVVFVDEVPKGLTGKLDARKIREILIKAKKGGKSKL
26S proteasome non-ATPase regulatory subunit 14, sequence (O00487 whole entry): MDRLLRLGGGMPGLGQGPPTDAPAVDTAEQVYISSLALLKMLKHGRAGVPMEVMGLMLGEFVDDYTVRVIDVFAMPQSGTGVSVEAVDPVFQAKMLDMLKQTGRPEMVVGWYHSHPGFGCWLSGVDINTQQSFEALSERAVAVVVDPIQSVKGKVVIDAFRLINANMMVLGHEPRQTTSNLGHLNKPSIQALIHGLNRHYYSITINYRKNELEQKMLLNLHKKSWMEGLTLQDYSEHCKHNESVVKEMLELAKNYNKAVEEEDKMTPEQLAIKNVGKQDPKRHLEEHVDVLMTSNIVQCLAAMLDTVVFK
Genome polyprotein, sequence (P29990 2492-3391 limits assumed): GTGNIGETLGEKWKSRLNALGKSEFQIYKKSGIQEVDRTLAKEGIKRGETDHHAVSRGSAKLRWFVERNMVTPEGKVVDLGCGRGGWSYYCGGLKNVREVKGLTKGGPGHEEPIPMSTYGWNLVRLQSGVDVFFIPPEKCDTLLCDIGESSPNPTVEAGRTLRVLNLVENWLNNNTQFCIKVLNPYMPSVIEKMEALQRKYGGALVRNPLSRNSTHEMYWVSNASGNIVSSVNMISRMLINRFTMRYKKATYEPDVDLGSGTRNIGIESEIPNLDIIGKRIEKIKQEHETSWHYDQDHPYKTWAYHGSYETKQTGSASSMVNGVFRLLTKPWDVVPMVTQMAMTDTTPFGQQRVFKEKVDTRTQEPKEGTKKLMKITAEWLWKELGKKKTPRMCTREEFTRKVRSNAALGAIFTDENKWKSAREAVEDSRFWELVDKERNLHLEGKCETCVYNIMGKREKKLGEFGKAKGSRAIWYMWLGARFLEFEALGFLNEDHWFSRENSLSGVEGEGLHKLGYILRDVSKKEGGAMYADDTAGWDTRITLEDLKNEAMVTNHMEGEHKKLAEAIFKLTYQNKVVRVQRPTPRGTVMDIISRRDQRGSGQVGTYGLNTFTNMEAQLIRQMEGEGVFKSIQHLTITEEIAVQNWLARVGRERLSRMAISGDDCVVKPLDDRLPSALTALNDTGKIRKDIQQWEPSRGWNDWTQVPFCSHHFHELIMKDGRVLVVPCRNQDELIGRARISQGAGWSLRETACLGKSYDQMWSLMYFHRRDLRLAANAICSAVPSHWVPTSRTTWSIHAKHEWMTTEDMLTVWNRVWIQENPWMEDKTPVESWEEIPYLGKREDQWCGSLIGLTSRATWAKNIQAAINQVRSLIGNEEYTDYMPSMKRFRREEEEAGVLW
72 kDa type IV collagenase, sequence (P08253 whole entry, the tested form may be a part): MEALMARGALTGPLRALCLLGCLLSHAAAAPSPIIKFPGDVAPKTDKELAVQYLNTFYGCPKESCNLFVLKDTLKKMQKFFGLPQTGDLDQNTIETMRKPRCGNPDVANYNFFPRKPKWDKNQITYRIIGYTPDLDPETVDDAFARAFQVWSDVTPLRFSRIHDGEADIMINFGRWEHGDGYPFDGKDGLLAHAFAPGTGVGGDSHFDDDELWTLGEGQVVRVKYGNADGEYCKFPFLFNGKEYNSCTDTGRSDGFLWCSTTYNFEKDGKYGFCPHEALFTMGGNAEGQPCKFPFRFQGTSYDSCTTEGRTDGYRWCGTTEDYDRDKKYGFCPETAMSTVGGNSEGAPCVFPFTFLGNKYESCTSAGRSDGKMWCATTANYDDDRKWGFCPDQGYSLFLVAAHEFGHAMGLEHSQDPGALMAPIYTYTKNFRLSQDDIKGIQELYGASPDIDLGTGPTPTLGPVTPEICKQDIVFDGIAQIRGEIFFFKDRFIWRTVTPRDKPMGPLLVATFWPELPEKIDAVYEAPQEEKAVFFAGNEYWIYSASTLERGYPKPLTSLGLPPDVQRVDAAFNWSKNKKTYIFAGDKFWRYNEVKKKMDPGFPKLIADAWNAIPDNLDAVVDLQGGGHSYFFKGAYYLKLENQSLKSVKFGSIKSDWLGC
Large T antigen, sequence (P03070 whole entry): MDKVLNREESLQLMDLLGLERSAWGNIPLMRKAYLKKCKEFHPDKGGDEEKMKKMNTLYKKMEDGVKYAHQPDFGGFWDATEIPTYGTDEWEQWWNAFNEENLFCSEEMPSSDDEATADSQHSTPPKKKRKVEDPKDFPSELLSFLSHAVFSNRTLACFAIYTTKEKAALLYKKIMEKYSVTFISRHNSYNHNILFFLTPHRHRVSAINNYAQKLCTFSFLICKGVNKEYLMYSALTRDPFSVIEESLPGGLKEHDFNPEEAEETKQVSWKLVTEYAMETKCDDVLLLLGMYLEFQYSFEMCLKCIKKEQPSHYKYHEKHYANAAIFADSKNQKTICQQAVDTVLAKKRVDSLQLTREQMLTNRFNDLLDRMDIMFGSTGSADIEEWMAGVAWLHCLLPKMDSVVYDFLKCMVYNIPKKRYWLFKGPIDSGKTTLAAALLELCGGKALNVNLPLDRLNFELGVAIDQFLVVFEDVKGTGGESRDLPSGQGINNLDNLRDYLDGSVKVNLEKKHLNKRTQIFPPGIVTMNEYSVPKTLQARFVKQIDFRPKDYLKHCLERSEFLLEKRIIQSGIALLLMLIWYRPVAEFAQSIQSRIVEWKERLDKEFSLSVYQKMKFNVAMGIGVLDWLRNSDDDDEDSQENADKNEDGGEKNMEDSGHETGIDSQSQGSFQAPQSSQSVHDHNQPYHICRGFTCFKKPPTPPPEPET

With `C[C@H](CO)N1C[C@H](C)[C@H](CN(C)Cc2ccncc2)Oc2cc(-c3ccccc3F)ccc2S1(=O)=O` as the molecule, how does the IC50 [1] read?
The IC50 was 15.5 µM (inactive).

And the IC50 [2]?
The IC50 was 1.33 µM (active).

What about the IC50 (Steroidogenic factor 1) of the same molecule?
Its IC50 is 1.33 µM (active).

Which IC50 [3] does the source give for `O=C(O)c1ccc(COc2ccccc2C=C2C(=O)c3ccccc3C2=O)cc1` here?
The IC50 was 85.9 µM (active).

And the EC50 [4]?
The EC50 was 10 µM (active).

And the IC50 [5]?
The IC50 was 17.1 µM (active).

What about the IC50 (Genome polyprotein) of the same molecule?
The IC50 was 6.33 µM (active).

And the IC50 [6]?
The IC50 was < 0.368 µM (active).

And the IC50 (Aminopeptidase N)?
The IC50 was 74.9 µM (active).

What about the IC50 (Prothrombin) of the same molecule?
Its IC50 is > 100 µM (inactive).

And the IC50 [7]?
The IC50 was > 100 µM (inactive).

And the IC50 [8]?
The IC50 was 5.86 µM (active).

What about the IC50 (Large T antigen) of the same molecule?
Its IC50 is 35.2 µM (active).

And the IC50 [9]?
Its IC50 is 1.47 µM (active).

With `O=C1/C(=C/c2ccccc2)CN(C(=O)CCN2CCOCC2)C/C1=C\c1ccccc1` as the molecule, how does the IC50 [10] read?
Its IC50 is 6.29 µM (active).

For `Cc1n[nH]c(O)c1C(c1c(C)n[nH]c1O)c1cn(C)c2ccccc12`, which IC50 [11] is on record?
Its IC50 is 11.2 µM (active).

What about the IC50 [12] of the same molecule?
Its IC50 is 11.9 µM (active).

Which results are given for `O=C(COc1ccc2c3c(c(=O)oc2c1)CCCC3)NCCCN1CCOCC1`?
IC50 [1]: 35.9 µM (inactive); IC50 [2]: 35.9 µM (inactive); IC50 (Steroidogenic factor 1): 35.9 µM (inactive)

For `O=C(Nc1nnc(S(=O)(=O)Nc2ccccc2)s1)c1ccccc1Cl`, which EC50 [4] is on record?
Its EC50 is > 53 µM (inactive).

And the IC50 [6]?
Its IC50 is < 0.368 µM (active).

What about the IC50 [9] of the same molecule?
The IC50 was 7.38 µM (active).

What does the source list for `Cc1ccc2[nH]c(-c3ccccn3)nc2c1`?
AC50 (HEK293): 3.34 µM (active); AC50 [13]: 76 µM (active); EC50 [14]: 2.78 µM (active); AC50 [15]: 34.3 µM (active); AC50 [16]: 6.67 µM (active); AC50 [17]: 5.45 µM (active); AC50 [18]: > 52 µM (inactive); EC50 [19]: 14.7 µM (active); AC50 [20]: 27.3 µM (active)

Reference: ChEMBL document CHEMBL1201862, “PubChem BioAssay data set” (2004)
